Converted amounts (≈) assume the structure as drawn. Each block holds one molecule with its values, some of them ahead of it.
How the values were obtained:
Type in all cases: functional
Staphylococcus aureus [1] = test: Antibacterial activity against Staphylococcus aureus assessed as bacterial growth inhibtion incubated for 18 hrs by resazurin dye based microdilution assay
Staphylococcus aureus [2] = test: Antibacterial activity against Methicillin-sensitive Staphylococcus aureus ATCC 25923 assessed as bacterial growth inhibtion incubated for 18 hrs by resazurin dye based microdilution assay
Staphylococcus aureus [3] = test: Antibacterial activity against Methicillin-resistant Staphylococcus aureus ATCC 43300 assessed as bacterial growth inhibtion incubated for 18 hrs by resazurin dye based microdilution assay
Staphylococcus aureus [4] = test: Potency index, ratio of eucalrobusone-F MIC to test compound MIC for antibacterial activity against Staphylococcus aureus

Compound: CC(C)CC(=O)c1c(O)c(C=O)c(O)c(C[C@H]2CC(C(C)C)=C[C@H]3Oc4c(c(O)c(C=O)c(O)c4C(=O)CC(C)C)C[C@@]23C)c1O
MIC (Staphylococcus aureus [1]): 12.6 µM (≈ 8.02 µg/mL)
MIC (Staphylococcus aureus [2]): 12.6 µM (≈ 8.02 µg/mL)
MIC (Staphylococcus aureus [3]): 12.6 µM (≈ 8.02 µg/mL)

Compound: CC(=O)CC[C@@H]1[C@H]([C@@H]2C[C@@](C)(C(CC(C)C)c3c(O)c(C=O)c(O)c(C=O)c3O)CC2=O)C1(C)C (some centres not stated)
MIC (Staphylococcus aureus [1]): 16.5 µM (≈ 8.03 µg/mL)

Compound: CC(C)CC(=O)c1c(O)c(C=O)c2c(c1O)C[C@@H]1CC(=O)CC[C@]1(C)O2
MIC (Staphylococcus aureus [2]): > 899 µM
MIC (Staphylococcus aureus [3]): > 899 µM

Compound: CC(C)CC(=O)c1c(O)c(C=O)c(O)c2c1O[C@]1(C)[C@H](C2)C[C@@]2(C(C)C)C[C@H]21
MIC (Staphylococcus aureus [2]): > 82.9 µM
MIC (Staphylococcus aureus [3]): > 82.9 µM

Compound: CC(C)CC(=O)c1c(O)c(C=O)c(O)c(C[C@H]2CC(C(C)C)=C[C@H]3Oc4c(C=O)c(O)c(C(=O)CC(C)C)c(O)c4C[C@@]23C)c1O
Ratio (Staphylococcus aureus [4]): ~2
MIC (Staphylococcus aureus [1]): 6.3 µM (≈ 4.01 µg/mL)
MIC (Staphylococcus aureus [2]): 6.3 µM (≈ 4.01 µg/mL)
MIC (Staphylococcus aureus [3]): 6.3 µM (≈ 4.01 µg/mL)

Compound: CC(C)CC(c1c(O)c(C=O)c(O)c(C=O)c1O)C1(C)C=C2CCC1C(C(C)(C)O)CCC2C (configuration not stated)
MIC (Staphylococcus aureus [1]): 3.4 µM (≈ 1.61 µg/mL)

Compound: C=C(C)[C@@H]1C=C2[C@@H](C)CC[C@@H](Cc3c(O)c(C=O)c(O)c(C(=O)CCC)c3O)[C@]2(C)CC1
MIC (Staphylococcus aureus [1]): 3.5 µM (≈ 1.54 µg/mL)

Compound: Cc1c(O)c(C=O)c(O)c([C@H]2Oc3c(C=O)c(O)c(C(=O)CC(C)C)c(O)c3C[C@@H]2C(C)C)c1O
MIC (Staphylococcus aureus [2]): > 65.8 µM
MIC (Staphylococcus aureus [3]): > 65.8 µM

Compound: CC(C)CC(c1c(O)c(C=O)c(O)c(C=O)c1O)C1(C)CCC2C1=CC(C(C)(C)O)CCC2C (configuration not stated)
MIC (Staphylococcus aureus [1]): 3.3 µM (≈ 1.56 µg/mL)

Compound: CC(C)CC(=O)c1c(O)c(C=O)c(O)c2c1O[C@H]1[C@H]3[C@@H](CC[C@]4(C)Oc5c(c(O)c(C=O)c(O)c5C(=O)CC(C)C)C[C@H]4CC[C@]1(C)C2)C3(C)C
MIC (Staphylococcus aureus [2]): > 45.4 µM
MIC (Staphylococcus aureus [3]): > 45.4 µM

Compound: CC(C)CC(c1c(O)c(C=O)c(O)c(C=O)c1O)C1(C)/C=C2/CCC2C(C(C)(C)O)CCC1C (configuration not stated)
MIC (Staphylococcus aureus [1]): 1.7 µM (≈ 0.803 µg/mL)

Compound: CC(C)C[C@H]1c2c(O)c(C=O)c(O)c(C=O)c2O[C@]2(C)C=CC(=O)C[C@@H]12
MIC (Staphylococcus aureus [2]): > 89.4 µM
MIC (Staphylococcus aureus [3]): > 89.4 µM

Compound: CO[C@H]1/C=C/O[C@@]2(C)Oc3c(C)c(O)c4c(O)c(c(/C=N/N5CCN(C)CC5)c(O)c4c3C2=O)NC(=O)/C(C)=C\C=C\[C@H](C)[C@H](O)[C@@H](C)[C@@H](O)[C@@H](C)[C@H](OC(C)=O)[C@@H]1C [RIFAMPIN]
MIC (Staphylococcus aureus [2]): 0.16 µM (≈ 0.132 µg/mL)
MIC (Staphylococcus aureus [3]): 0.16 µM (≈ 0.132 µg/mL)

Results, then the molecule that gave them:

MIC (Staphylococcus aureus [1]): 4.7 µM (≈ 2.14 µg/mL)
Compound: C=C(C)[C@@H]1C=C2[C@@H](C)CC[C@@H](Cc3c(O)c(C=O)c(O)c(C(=O)CC(C)C)c3O)[C@]2(C)CC1

MIC (Staphylococcus aureus [1]): 19.9 µM (≈ 9.41 µg/mL)
Compound: C=C(C)[C@@H]1CC[C@@]2(C)[C@H](Cc3c(O)c(C=O)c(O)c(C(=O)CC(C)C)c3O)CC[C@@](C)(O)[C@@H]2C1

MIC (Staphylococcus aureus [1]): 16.8 µM (≈ 8.24 µg/mL)
Compound: CC(C)C[C@@H](c1c(O)c(C=O)c(O)c(C=O)c1O)C1CC[C@@](C)(O)[C@@H]2C[C@H](C(C)(C)O)CC[C@@]12C (some centres not stated)

MIC (Staphylococcus aureus [1]): 7.1 µM (≈ 3.13 µg/mL)
Compound: C=C1CC[C@@H]2[C@H]([C@H]3[C@H]1CC[C@]3(C)Cc1c(O)c(C=O)c(O)c(C(=O)CCC)c1O)C2(C)C

MIC (Staphylococcus aureus [1]): 3.3 µM (≈ 1.56 µg/mL)
Compound: CC(C)CC(c1c(O)c(C=O)c(O)c(C=O)c1O)C1(C)CCC2C1C1C(CCC2(C)O)C1(C)C (configuration not stated)

MIC (Staphylococcus aureus [1]): 6.9 µM (≈ 3.14 µg/mL)
Compound: C=C1CCC2C(C3C1CCC3(C)C(CC(C)C)c1c(O)c(C=O)c(O)c(C=O)c1O)C2(C)C (configuration not stated)

MIC (Staphylococcus aureus [1]): 7.4 µM (≈ 3.5 µg/mL)
Compound: CC(C)CC(=O)c1c(O)c(C=O)c(O)c(C[C@@]2(C)CC[C@@H]3[C@@H]2[C@H]2[C@@H](CC[C@@]3(C)O)C2(C)C)c1O [EUCALYPTIN A]

MIC (Staphylococcus aureus [1]): 3.3 µM (≈ 1.56 µg/mL)
Compound: CC(C)C[C@@H](c1c(O)c(C=O)c(O)c(C=O)c1O)[C@@]1(C)CC[C@@H]2[C@@H]1[C@H]1[C@@H](CC[C@@]2(C)O)C1(C)C [MACROCARPAL A]

— ChEMBL document CHEMBL5370569, “Camaldulensals A-C, the First Meroterpenoids Possessing Two Spatially Separated Formyl Phloroglucinols Conjugated to a Terpene Core from the Leaves of Eucalyptus camaldulensis Dehnh” (2023)
